Measured values published in patent US20170045520A1, “METHOD FOR PREDICTING RESPONSE TO THERAPY FOR CANCER” (National University of Singapore, priority 2014, published 2017).
Like-named read-outs stand apart in the source and are kept apart here.

Test system: WBP2 overexpressing cancer cells
Experiment: Drug sensitivity of cells overexpressing WT ITCH versus C830A or E855K mutant ITCH to Wnt inhibitors
Format: cell-based
Procedure: This was indeed the case for up to 0.0001 μM and 5 μM for FH535 and C59, respectively, but above these doses, the distinction was lost probably as a result of non-specific cytotoxicity (FIGS. 8 and 9). This implies that ITCH inactivating mutations could be used to predict for response to Wnt inhibitors especially in cancers that are dependent on WBP2.

[1] = WT ITCH vs C830A or E855K mutant ITCH overexpression, FIGS. 8 and 9

Row | Compound | dose up to which the difference in sensitivity between WT ITCH and mutant ITCH cells held (above it the distinction was lost, probably non-specific cytotoxicity) [µM] | sensitivity of cells to the Wnt inhibitor when WT ITCH is overexpressed (low WBP2) compared to when C830A or E855K mutant is overexpressed (high WBP2) [1] | dose up to which the difference in sensitivity between WT ITCH and mutant ITCH cells held (above it the distinction was lost, probably non-specific cytotoxicity) [1]
1 | Cc1cc(-c2ccc(CC(=O)Nc3ccc(-c4cccnc4)cc3)cc2)ccn1 [C59] | ≤ 5 | less sensitive | 
2 | Cc1cc([N+](=O)[O-])ccc1NS(=O)(=O)c1cc(Cl)ccc1Cl [FH535] |  | less sensitive | up to 0.0001 μM
